IC50 data for two compounds are collected here from PMC4058678 (The Biochemical journal, 2009).

The target in test [1] is T1, myeloperoxidase (MPO) (Homo sapiens, UniProt P05164). Nature of the test: HOCl production by isolated MPO-H2O2-Cl− system. The test is classed as biochemical.
The target of test [2] is T1, myeloperoxidase (MPO). Description: HOCl production by isolated MPO-H2O2-Cl− system. In kind it is biochemical. This is another data set of the same source.

Like-named read-outs stand apart in the source and are kept apart here.

T1 sequence (P05164 165-273): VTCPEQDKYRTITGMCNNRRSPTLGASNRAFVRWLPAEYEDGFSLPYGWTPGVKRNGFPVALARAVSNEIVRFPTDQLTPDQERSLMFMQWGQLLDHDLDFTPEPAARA
T1 sequence (P05164 279-745): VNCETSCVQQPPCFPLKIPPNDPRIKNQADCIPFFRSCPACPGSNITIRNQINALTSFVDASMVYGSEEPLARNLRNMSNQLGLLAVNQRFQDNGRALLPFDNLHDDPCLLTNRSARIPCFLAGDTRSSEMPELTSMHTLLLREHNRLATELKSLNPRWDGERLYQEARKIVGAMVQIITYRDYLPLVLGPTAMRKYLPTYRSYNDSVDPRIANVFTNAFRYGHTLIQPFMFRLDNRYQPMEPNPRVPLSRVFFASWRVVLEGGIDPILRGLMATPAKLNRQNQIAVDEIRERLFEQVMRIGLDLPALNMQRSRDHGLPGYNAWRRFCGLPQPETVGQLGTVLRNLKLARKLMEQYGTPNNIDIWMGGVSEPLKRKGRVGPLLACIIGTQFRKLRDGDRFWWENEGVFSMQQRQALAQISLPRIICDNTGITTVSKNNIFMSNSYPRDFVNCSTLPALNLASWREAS

In the case of `CC1(C)CC(N)C(C)(C)N1[O]` (centres unmarked) [3-AminoPROXYL, 3-amino-2,2,5,5-tetramethylpyrrolidin-1-yloxyl], inhibition on myeloperoxidase (MPO) [1] was half-maximal at 2700 nM (IC50).
For the compound `CC1(C)CC(N)CC(C)(C)N1[O]` [4-AminoTEMPO, 4-amino-2,2,6,6-tetramethylpiperidin-1-yloxyl], the IC50 (as a rule, the concentration that inhibits the measured activity by half) at myeloperoxidase (MPO) [2] came out at 1200 nM.
